Experimental findings from patent US9012470B2 (Dart NeuroScience (Cayman) Ltd., priority 2010, dated 2015) are described below.

For this test, the system named is benzodiazepine site of GABAA. The test can be described thus: Binding assay, benzodiazepine site of GABAA (binding assay 1: rat brain, (3H)-flunitrazepam; binding assay 2: bovine hippocampal membranes, [3H]-RY80). Conditions: radioligand binding; for % Inhibition at 10 μM: 10 μM test compound; for % Inhibition at 0.1 μM: 0.1 μM test compound. On the procedure: The ability of a compound disclosed herein to act as ligand to the benzodiazepine site of GABAA can be determined using pharmacological models which are well known in the art using the following assay.
Binding assay 1: Whole brain (except cerebellum) of male Wistar derived rats weighing 175±25 g were used to prepare GABAA central benzodiazepine receptor in Na—K phosphate buffer pH 7.4. A 5 mg aliquot was incubated with 1 nM (^3H)-flunitrazepam for 60 minutes at 25° C. Experiments were performed in the presence or absence of 30 μM of GABA. Non-specific binding was estimated in the presence of 10 μM of diazepam. Membranes were filtered and washed, the filters were then counted to determine (^3H)-flunitrazepam specifically bound. Test compounds were tested in duplicate according to the required concentrations (Damm, H. W., et al. (1978) Res. Comm. Chem. Pathol. Pharmacol. 22: 597-560 incorporated herein in its entirety; Speth, R. C., et al. (1979) Life Sci. 24: 351-357 incorporated herein in its entirety).
Receptor Source: Bovine hippocampal membranes
Radioligand: [3H]-RY80 (40-80 Ci/mmol)
Final ligand concentration—[0.8 nM]
Non-specific Determinant: L-655,708—[0.5 μM]
Binding assay 2 followed procedures based on Li and Szabo (Li M., Szabo A., Rosenberg H. Evaluation of native GABAA receptors containing an α5 subunit. Eur. J. Pharmacol. 413: 63-72 (2001)). Incubation Conditions: Reactions are carried out in 50 mM Tris-Citrate (pH 7.8) containing 200 mM NaCl at 0-4° C. for 60 minutes. The reaction is terminated by rapid vacuum filtration onto glass fiber filters. Radioactivity trapped onto the filters is determined and compared to control values in order to ascertain any interactions of test compound with the benzodiazepine (central) binding site.

Regarding `CCNC(=O)n1ccc2c3nn(-c4ccc(Cl)cn4)c(=O)c-3c[nH]c21` [Compound 17f, 2-(5-Chloropyridin-2-yl)-N-ethyl-3-oxo-2,3-dihydropyrazolo[3,4-d]pyrrolo[2,3-b]pyridine-6(5H)-carboxamide], the “% Inhibition at 10 μM” value was “B (B indicates % inhibition <80% and >20%)”.

For the compound `CC(C)NC(=O)n1ncc2c3nn(-c4ccsc4)c(=O)c-3c[nH]c21` [Compound 6v, N-isopropyl-3-oxo-2-(thiophen-3-yl)-2,3-dihydrodipyrazolo[3,4-b:3′,4′-d]pyridine-6(5H)-carboxamide], the “% Inhibition at 10 μM” value was “B (B indicates % inhibition <80% and >20%)”.

As for `CCNC(=O)n1ncc2c3nn(-c4ccc(F)cc4F)c(=O)c-3c[nH]c21` [Compound 6ao, 2-(2,4-difluorophenyl)-N-ethyl-3-oxo-2,3-dihydrodipyrazolo[3,4-b:3′,4′-d]pyridine-6(5H)-carboxamide], the “% Inhibition at 0.1 μM” value is “B (B indicates % inhibition <80% and >20%)”; the “% Inhibition at 10 μM” value was “A (A indicates % inhibition >80%)”.

In the case of `CCNC(=O)n1ccc2c3nn(-c4ccccc4)c(=O)c-3c[nH]c21` [Compound 17b, N-Ethyl-3-oxo-2-phenyl-2,3-dihydropyrazolo[3,4-d]pyrrolo[2,3-b]pyridine-6(5H)-carboxamide], the “% Inhibition at 0.1 μM” value is on record as “C (C indicates % inhibition <20%)”; the “% Inhibition at 10 μM” value is “B (B indicates % inhibition <80% and >20%)”.

With `CCCCNC(=O)n1ncc2c3nn(-c4cccc(Cl)c4)c(=O)c-3c[nH]c21` [Compound 6ac, N-butyl-2-(3-chlorophenyl)-3-oxo-2,3-dihydrodipyrazolo[3,4-b:3′,4′-d]pyridine-6(5H)-carboxamide], the “% Inhibition at 10 μM” value is listed as “A (A indicates % inhibition >80%)”.

Regarding `O=C(N1CCCC1)n1ncc2c3nn(-c4ccccc4)c(=O)c-3c[nH]c21` [Compound 6k, 2-phenyl-6-(pyrrolidine-1-carbonyl)-5,6-dihydrodipyrazolo[3,4-b:3′,4′-d]pyridin-3(2H)-one], the “% Inhibition at 0.1 μM” value was “C (C indicates % inhibition <20%)” and the “% Inhibition at 10 μM” value is “C (C indicates % inhibition <20%)”.

For `CC(C)CNC(=O)n1ncc2c3nn(-c4ccccc4)c(=O)c-3c[nH]c21` [Compound 6e, N-isobutyl-3-oxo-2-phenyl-2,3-dihydrodipyrazolo[3,4-b:3′,4′-d]pyridine-6(5H)-carboxamide], the “% Inhibition at 0.1 μM” value is reported as “C (C indicates % inhibition <20%)” and the “% Inhibition at 10 μM” value is “A (A indicates % inhibition >80%)”.

Take `CC(C)NC(=O)n1ncc2c3nn(-c4ccc(C(F)(F)F)cc4)c(=O)c-3c[nH]c21` [Compound 6af, N-isopropyl-3-oxo-2-(4-(trifluoromethyl)phenyl)-2,3-dihydrodipyrazolo[3,4-b:3′,4′-d]pyridine-6(5H)-carboxamide]: the “% Inhibition at 10 μM” value was “B (B indicates % inhibition <80% and >20%)”.

As for `CC(C)NC(=O)n1ncc2c3nn(-c4ccc(C(C)C)cc4)c(=O)c-3c[nH]c21` [Compound 6aa, N-isopropyl-2-(4-isopropylphenyl)-3-oxo-2,3-dihydrodipyrazolo[3,4-b:3′,4′-d]pyridine-6(5H)-carboxamide], the “% Inhibition at 10 μM” value is “B (B indicates % inhibition <80% and >20%)”.

Regarding `CC(C)CCNC(=O)n1ncc2c3nn(-c4ccccc4)c(=O)c-3c[nH]c21` [Compound 6g, N-isopentyl-3-oxo-2-phenyl-2,3-dihydrodipyrazolo[3,4-b:3′,4′-d]pyridine-6(5H)-carboxamide], the “% Inhibition at 0.1 μM” value is “B (B indicates % inhibition <80% and >20%)”; the “% Inhibition at 10 μM” value is on record as “A (A indicates % inhibition >80%)”.

For `CC(C)NC(=O)n1cc2[nH]cc3c(=O)n(-c4ccccc4)nc-3c2c1` [Compound 13j, N-Isopropyl-3-oxo-2-phenyl-2,3-dihydropyrazolo[3,4-d]pyrrolo[3,4-b]pyridine-7(5H)-carboxamide], the “% Inhibition at 0.1 μM” value is “B (B indicates % inhibition <80% and >20%)”; the “% Inhibition at 10 μM” value was “A (A indicates % inhibition >80%)”.

Regarding `CC(C)NC(=O)n1ccc2c3nn(-c4ccccc4)c(=O)c-3c[nH]c21` [Compound 17c, N-Isopropyl-3-oxo-2-phenyl-2,3-dihydropyrazolo[3,4-d]pyrrolo[2,3-b]pyridine-6(5H)-carboxamide], the “% Inhibition at 0.1 μM” value is “C (C indicates % inhibition <20%)” and the “% Inhibition at 10 μM” value is on record as “C (C indicates % inhibition <20%)”.

For `CC(C)NC(=O)n1ncc2c3nn(-c4ccc(Br)cc4)c(=O)c-3c[nH]c21` [Compound 6x, 2-(4-bromophenyl)-N-isopropyl-3-oxo-2,3-dihydrodipyrazolo[3,4-b:3′,4′-d]pyridine-6(5H)-carboxamide], the “% Inhibition at 10 μM” value was “A (A indicates % inhibition >80%)”.

As for `CC(C)NC(=O)n1ncc2c3nn(-c4ccccc4)c(=O)c-3c[nH]c21` [Compound 6a, N-isopropyl-3-oxo-2-phenyl-2,3-dihydrodipyrazolo[3,4-b:3′,4′-d]pyridine-6(5H)-carboxamide], the “% Inhibition at 0.1 μM” value is given as “C (C indicates % inhibition <20%)”; the “% Inhibition at 10 μM” value is “B (B indicates % inhibition <80% and >20%)”.

`CC(C)CCNC(=O)n1ncc2c3nn(-c4ccc(F)cc4F)c(=O)c-3c[nH]c21` [Compound 6ap, 2-(2,4-difluorophenyl)-N-isopentyl-3-oxo-2,3-dihydrodipyrazolo[3,4-b:3′,4′-d]pyridine-6(5H)-carboxamide]: the “% Inhibition at 0.1 μM” value is recorded as “C (C indicates % inhibition <20%)” and the “% Inhibition at 10 μM” value is listed as “A (A indicates % inhibition >80%)”.

Take `CCNC(=S)n1ccc2c3nn(-c4ccccc4)c(=O)c-3c[nH]c21` [Compound 17e, N-ethyl-3-oxo-2-phenyl-2,3-dihydropyrazolo[3,4-d]pyrrolo[2,3-b]pyridine-6(5H)-carbothioamide]: the “% Inhibition at 10 μM” value was “B (B indicates % inhibition <80% and >20%)”.
